What all share (type): biochemical
The target in experiment [1] is T1, PaKEOPS (Pcc1-Kae1-Bud32-Cgi121) (Pyrococcus abyssi, UniProt Q9UYB9).
T1 construct: recombinant from E. coli Rosetta2, His-tag purification; whole complex or reconstituted from Pcc1-Kae1 plus Bud32-Cgi121; homodimer of the heterotetramer; with tRNA N6-adenosine threonylcarbamoyltransferase; KEOPS complex Pcc1-like subunit; Regulatory protein Cgi121
The experiment can be described thus: TLC of radiolabelled ATP hydrolysis. The conditions noted are these: 100 uM ATP, 50 °C, 30 min, with or without tRNA; reconstituted complex; labelled compound.

The target in experiment [2] is T1, PaKEOPS (Pcc1-Kae1-Bud32-Cgi121). The experiment is described as follows: TLC of radiolabelled ATP hydrolysis. The conditions noted are these: 100 uM ATP, 50 °C, 30 min, with or without tRNA; reconstituted complex; labelled compound. The source holds these as a separate data set.
For experiment [3], the target named is T2, Kae1-Bud32-Cgi121 ternary complex (Pyrococcus abyssi, UniProt Q9UYB9).
T2 construct: recombinant from E. coli Rosetta2, His-tag purification; ternary complex, monomeric form; with tRNA N6-adenosine threonylcarbamoyltransferase; Regulatory protein Cgi121
The experiment is described as follows: TLC of radiolabelled ATP hydrolysis. The conditions noted are these: 100 uM ATP, 50 °C, 30 min; independent of tRNA; labelled compound.

For experiment [4], the target named is T3, Kae1-Bud32 binary complex (Pyrococcus abyssi, UniProt Q9UYB9).
T3 construct: recombinant from E. coli Rosetta2, His-tag purification; binary complex, monomeric form; with tRNA N6-adenosine threonylcarbamoyltransferase
The experiment can be described thus: TLC of radiolabelled ATP hydrolysis. To be noted: 100 uM ATP, 50 °C, 30 min; independent of tRNA; labelled compound.

Experiment [5] concerns the target T4, Bud32-Cgi121 binary complex (Pyrococcus abyssi, UniProt Q9UYB9).
T4 construct: recombinant from E. coli Rosetta2, His-tag purification; binary complex, monomeric form; with Regulatory protein Cgi121
T4 sequence (Q9UYB9 1-220): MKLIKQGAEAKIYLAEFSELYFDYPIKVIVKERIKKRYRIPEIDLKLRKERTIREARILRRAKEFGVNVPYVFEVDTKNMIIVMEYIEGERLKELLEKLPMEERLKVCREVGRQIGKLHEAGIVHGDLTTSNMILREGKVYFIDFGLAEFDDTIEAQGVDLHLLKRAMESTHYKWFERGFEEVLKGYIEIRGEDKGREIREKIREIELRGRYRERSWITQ
T4 sequence (Q9UZ62 1-171 partner): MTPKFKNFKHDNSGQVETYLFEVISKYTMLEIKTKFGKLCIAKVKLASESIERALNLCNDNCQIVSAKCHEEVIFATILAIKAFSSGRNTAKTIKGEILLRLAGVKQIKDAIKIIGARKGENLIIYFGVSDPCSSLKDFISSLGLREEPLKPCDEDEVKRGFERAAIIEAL
The experiment can be described thus: autophosphorylation with gamma-32P ATP, SDS-PAGE phosphorimaging. The conditions noted are these: 25 uM cold ATP, 55 °C, 30 min; no ATPase activity in TLC assay; labelled compound.

Experiment [6] has as its target T5, PaKEOPS (Pcc1-Kae1-Bud32-Cgi121) (Pyrococcus abyssi, UniProt Q9UYB9, D127R).
T5 construct: recombinant from E. coli Rosetta2, His-tag purification; whole complex or reconstituted from Pcc1-Kae1 plus Bud32-Cgi121; homodimer of the heterotetramer; with tRNA N6-adenosine threonylcarbamoyltransferase; KEOPS complex Pcc1-like subunit; Regulatory protein Cgi121
The experiment is described as follows: TLC of radiolabelled ATP hydrolysis. The conditions noted are these: 100 uM ATP, 50 °C, 30 min, with or without tRNA; reconstituted complex; labelled compound.

In experiment [7] the target is T1, PaKEOPS (Pcc1-Kae1-Bud32-Cgi121). The experiment is described as follows: TLC of radiolabelled ATP hydrolysis. The conditions noted are these: 100 uM ATP, 50 °C, 30 min; stimulated by tRNA; labelled compound.

For the molecule `Nc1ncnc2c1ncn2[C@@H]1O[C@H](COP(=O)(O)OP(=O)(O)OP(=O)(O)O)[C@@H](O)[C@H]1O` [ATP], in experiment [1], the “wild-type ATPase activity” value is listed as “PaKEOPS (Kae1^D159A) behaved in the same manner as the wild-type PaKEOPS”. In experiment [2], the “normal ATPase activity” value is “the reconstituted mutant PaKEOPS exhibited normal ATPase activity”. In addition, the ATPase activity result in experiment [3] is given as “we recorded a significant ATPase activity that was independent of tRNA”; in experiment [4], “binary complex Kae1–Bud32 exhibited a significant ATPase activity”; in experiment [7], “the ATPase activity of the whole PaKEOPS complex is stimulated by the presence of tRNA”. Moreover, the autophosphorylation entry in experiment [5] was “When the reaction mixture contained only Bud32–Cgi121, a significant autophosphorylation activity of Bud32 was observed”. Also, the “ATPase activity totally lost” value in experiment [6] is reported as “PaKEOPS (Bud32^D127R) totally lost the ATPase activity”.

Values taken from publication PMC3814370, “Functional assignment of KEOPS/EKC complex subunits in the biosynthesis of the universal t^6A tRNA modification” (Nucleic Acids Research, 2013).
